In patent US12528812B2 (Genentech, Inc., priority 2020, dated 2026):
Like-named read-outs stand apart in the source and are kept apart here.

How the values were obtained:
[1] = test system: EPO-stimulated P-STAT5 in TF-1 human erythroleukemia cells; assay: P-STAT5 TF-1 + EPO assay (JAK2 pathway); assay type: cell-based; conditions: EPO stimulation, read-out: Cellular JAK2 PSTAT5 TF-1 + EPO
Procedure: (§1) TF-1 human erythroleukemia cells (ATCC′; Manassas, VA; Catalog No. CRL-2003™) were grown in Roswell Park Memorial Institute (RPMI) medium supplemented with 10% heat-inactivated fetal bovine serum (FBS), 2 ng/mL granulocyte-macrophage colony-stimulating factor, 1× non-essential amino acids (NEAA), and 1 mM sodium pyruvate. The day before the assay, the cultures were transferred to Opti-MEM™, 1×NEAA, 1 mM sodium pyruvate, and 0.5% charcoal-stripped FBS (starve medium). Inhibitor stock solutions (5 mM in DMSO) were serially diluted 1:2 in DMSO to generate a 10-point concentration titration (at 500× test concentration), which was further diluted by a 50-fold dilution in Assay Medium (RPMI containing 1×NEAA and 1 mM sodium pyruvate) to generate a 10× concentration titration (in 2% DMSO). The cells (300,000 cells/well in 35 μL of Assay Medium) were seeded in 384-well Greiner plates. Diluted inhibitor at 10× concentration (5 μL) was added to the cells and the plates were incubated for 30 minutes at 37° C. in a humidified incubator. Cells were stimulated with the human recombinant cytokine at the respective EC90 concentrations, as previously determined for each individual lot. For the phosphorylated signal transducer and activator of transcription 6 (P-STAT6) TF-1+Interleukin-13 (IL-13) assay, 10 μL of 250 ng/mL IL-13 (R&D Systems; Minneapolis, MN) was added to the cells, which were then incubated for 10 minutes at 37° C. For the P-STAT5 TF-1+Erythropoietin (EPO) assay, 10 μL of 110 IU/mL EPO (Gibco Life Technologies, Catalog No. PHC2054) was added to the cells, which were then incubated for […] at 37° C. For both assays, the incubation was followed by addition to the cells of 5 μL of ice-cold 10× cell lysis buffer (Cell Signaling Technologies; Danvers, MA; Catalog No. 9803S) containing 1 mM phenylmethylsulfonyl fluoride (PMSF). Assay plates were frozen at −80° C. for a minimum of 1 hour. In the IL-13 assay, P-STAT6 was measured by coating goat anti-rabbit (GAR) plates (Meso Scale Discovery [MSD]; Rockville, MD; Catalog No. MSD L21RA-1) with rabbit anti-human total STAT6 antibody (Cell Signaling Technologies; Catalog No. 9362S), incubating the cell lysates in the coated plates overnight at 4° C., and then detecting with mouse anti-P-STAT6 (Tyr641) Clone 16E12 antibody (MilliporeSigma; Burlington, MA; Catalog No. 05-590, custom labeled by MSD with SULFO-tag) using standard MSD plate processing, washing, and detection protocols. In the EPO assay, P-STAT5 was detected using the phospho-STAT5a,b Whole Cell Lysate Kit (MSD; Catalog No. K150IGD-1). The electrochemiluminescence (ECL) signal of wells was read on the MESO SECTOR 5600 (MSD) reader.
(§2) Data analysis was performed by subtracting the negative control (cytokine stimulated and 20 μM control inhibitor-treated cells) mean ECL value from the ECL value of all wells, determining percent of control for test compound well ECL values relative to the positive control (cytokine stimulated and DMSO-treated cells) mean ECL value, and determining the IC50 for test compounds with a four-parameter logistic fit model as shown in Equation 4.

[2] = target: Recombinant human JAK2 kinase domain protein (Residues 812-1132) (Homo sapiens, UniProt O60674); assay: JAK2 biochemical assay (LabChip mobility shift, Ki); conditions: Biochem JAK2 Ki
Sequence of Recombinant human JAK2 kinase domain protein (Residues 812-1132) (O60674 812-1132): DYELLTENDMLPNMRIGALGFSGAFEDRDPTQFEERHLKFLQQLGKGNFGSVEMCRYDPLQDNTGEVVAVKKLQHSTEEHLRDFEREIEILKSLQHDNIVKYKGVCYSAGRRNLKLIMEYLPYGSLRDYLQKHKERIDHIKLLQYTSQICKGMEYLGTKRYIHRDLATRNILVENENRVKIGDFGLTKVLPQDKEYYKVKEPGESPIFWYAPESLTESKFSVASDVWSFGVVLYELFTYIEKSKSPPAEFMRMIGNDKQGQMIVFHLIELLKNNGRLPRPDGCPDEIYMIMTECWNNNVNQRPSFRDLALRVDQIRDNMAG

[3] = target: T1, recombinant human JAK1 kinase domain protein (Residues 854-1154) (Homo sapiens, UniProt P23458); assay: JAK1 biochemical assay (LabChip mobility shift, Ki); conditions: read-out: Biochem JAK1 Ki
T1 construct: human JAK1 kinase domain protein (Residues 854-1154); purchased Proteros Biostructures GmbH (Martinsried, Germany); host or cells: insect cells
T1 sequence (P23458 854-1154): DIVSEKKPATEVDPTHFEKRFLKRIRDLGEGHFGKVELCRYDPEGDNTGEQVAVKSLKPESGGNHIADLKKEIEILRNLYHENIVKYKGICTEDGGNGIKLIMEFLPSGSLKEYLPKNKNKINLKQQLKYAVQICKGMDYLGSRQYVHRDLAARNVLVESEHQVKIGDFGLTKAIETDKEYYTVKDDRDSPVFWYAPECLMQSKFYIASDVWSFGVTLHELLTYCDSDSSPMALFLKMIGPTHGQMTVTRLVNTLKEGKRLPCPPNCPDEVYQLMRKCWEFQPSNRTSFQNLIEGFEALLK

[4] = test system: IL-13-stimulated P-STAT6 in TF-1 human erythroleukemia cells; assay: P-STAT6 TF-1 + IL-13 assay (JAK1 pathway); assay type: cell-based; conditions: IL13 stimulation, read-out: Cellular JAK1 PSTAT6 TF-1 + IL13
Procedure: as §1, §2

[5] = test system: IL-13-stimulated STAT6 phosphorylation in human lung bronchial epithelial BEAS-2B cell line; assay: P-STAT6 BEAS-2B + IL-13 cell assay; assay type: cell-based; conditions: BEAS2B cells, IL13 stimulation, read-out: Cellular JAK1 PSTAT6 BEAS2B + IL13
In short: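 BEAS-2B cells grown 48 h at 37 °C, pre-treated 1 h with compound (10-point 1:2 dilution curve), then stimulated 15 min with human recombinant IL-13 (250 ng/mL stock). Lysate P-STAT6 (Tyr641) read by MSD sandwich ELISA with total-STAT6 capture; IC50 from four-parameter logistic fit of control-normalised data.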

SMILES | IC50 ([1]; Homo sapiens, TF-1, TF-1 cells) | Ki [2] | Ki [3] | IC50 ([4]; Homo sapiens, TF-1, TF-1 cells) | IC50 ([5]; Homo sapiens, BEAS-2B) | IC50 ([1]; TF-1 cells) | IC50 ([4]; TF-1 cells) | IC50 [5]
Cc1ccc(Oc2ccc(OC(F)F)c(-c3nn(C)cc3NC(=O)c3cnn4cccnc34)c2)cc1C(=O)N(C)C [Example 49, N-[3-[2-(difluoromethoxy)-5-[3-(dimethylcarbamoyl)-4-methyl-phenoxy]phenyl]-1-methyl-pyrazol-4-yl]pyrazolo[1,5-a]pyrimidine-3-carboxamide] | 8.6 nM | 0.28 nM | 0.44 nM | 5.4 nM | 20 nM |  |  | 
Cn1cc(NC(=O)c2cnn3cccnc23)c(-c2cc(Oc3cccnc3)ccc2OC(F)F)n1 [Example 2, N-[3-[2-(difluoromethoxy)-5-(3-pyridyloxy)phenyl]-1-methyl-pyrazol-4-yl]pyrazolo[1,5-a]pyrimidine-3-carboxamide] | 11 nM | 0.19 nM | 0.32 nM | 3.6 nM | 20 nM |  |  | 
CN(C)Cc1cncc(Oc2ccc(OC(F)F)c(-c3nn(C)cc3NC(=O)c3cnn4cccnc34)c2)c1 [Example 133, N-[3-[2-(difluoromethoxy)-5-[[5-[(dimethylamino)methyl]-3-pyridyl]oxy]phenyl]-1-methyl-pyrazol-4-yl]pyrazolo[1,5-a]pyrimidine-3-carboxamide] | 24 nM | 1.2 nM | 1.1 nM | 13 nM | 62 nM |  |  | 
CN1CC(O)C(n2cc(Oc3ccc(OC(F)F)c(-c4nn(C)cc4NC(=O)c4cnn5cccnc45)c3)cn2)C1 (stereo not drawn) [Example 179, N-[3-[2-(difluoromethoxy)-5-[1-(4-hydroxy-l-methyl-pyrrolidin-3-yl)pyrazol-4-yl]oxy-phenyl]-1-methyl-pyrazol-4-yl]pyrazolo[1,5-a]pyrimidine-3-carboxamide] |  | 0.4 nM | 0.82 nM |  |  | 72 nM | 92 nM | 50 nM
CN1CC(O)C(n2cc(Oc3ccc(OC(F)F)c(-c4nn(C)cc4NC(=O)c4cnn5cccnc45)c3)cn2)C1 (stereo not drawn) [Example 178, N-[3-[2-(difluoromethoxy)-5-[1-(4-hydroxy-l-methyl-pyrrolidin-3-yl)pyrazol-4-yl]oxy-phenyl]-1-methyl-pyrazol-4-yl]pyrazolo[1,5-a]pyrimidine-3-carboxamide] | 49 nM | 0.21 nM | 0.29 nM |  | 32 nM |  | 26 nM | 
Cn1cc(NC(=O)c2cnn3cccnc23)c(-c2cc(Oc3cccc(C4CNCCO4)c3)ccc2OC(F)F)n1 (stereo not shown) [Example 82, N-[3-[2-(difluoromethoxy)-5-(3-morpholin-2-ylphenoxy)phenyl]-1-methyl-pyrazol-4-yl]pyrazolo[1,5-a]pyrimidine-3-carboxamide] | 15 nM | 0.6 nM | 0.58 nM | 8.4 nM | 51 nM |  |  | 
Cn1cc(NC(=O)c2cnn3cccnc23)c(-c2cc(Oc3cn[nH]c3)ccc2OC(F)F)n1 [Example 160, N-[3-[2-(difluoromethoxy)-5-(1H-pyrazol-4-yloxy)phenyl]-1-methyl-pyrazol-4-yl]pyrazolo[1,5-a]pyrimidine-3-carboxamide] | 3.6 nM | 0.07 nM | 0.1 nM | 2.1 nM | 8.3 nM |  |  | 
CN1CC(O)(Cn2cc(Oc3ccc(OC(F)F)c(-c4nn(C)cc4NC(=O)c4cnn5cccnc45)c3)cn2)C1 [Example 128, N-[3-[2-(difluoromethoxy)-5-[1-[(3-hydroxy-l-methyl-azetidin-3-yl)methyl]pyrazol-4-yl]oxy-phenyl]-1-methyl-pyrazol-4-yl]pyrazolo[1,5-a]pyrimidine-3-carboxamide] | 52 nM | 0.41 nM | 0.52 nM | 51 nM | 30 nM |  |  | 
CN1CC(O)(c2cccc(Oc3ccc(OC(F)F)c(-c4nn(C)cc4NC(=O)c4cnn5cccnc45)c3)n2)C1 [Example 190, N-[3-[2-(difluoromethoxy)-5-[[6-(3-hydroxy-l-methyl-azetidin-3-yl)-2-pyridyl]oxy]phenyl]-1-methyl-pyrazol-4-yl]pyrazolo[1,5-a]pyrimidine-3-carboxamide] | 130 nM | 1 nM | 1.4 nM | 180 nM | 38 nM |  |  | 
Cn1cc(NC(=O)c2cnn3cccnc23)c(-c2cc(Oc3cnn(S(C)(=O)=O)c3)ccc2OC(F)F)n1 [Example 195, N-[3-[2-(difluoromethoxy)-5-(1-methylsulfonylpyrazol-4-yl)oxy-phenyl]-1-methyl-pyrazol-4-yl]pyrazolo[1,5-a]pyrimidine-3-carboxamide] | 9.7 nM | 0.26 nM | 0.38 nM | 4.1 nM | 13 nM |  |  | 
CC(O)Cn1cc(Oc2ccc(OC(F)F)c(-c3nn(C)cc3NC(=O)c3cnn4cccnc34)c2)cn1 (racemic) [Example 121, N-[3-[2-(difluoromethoxy)-5-[1-[rac-(2S)-2-hydroxypropyl]pyrazol-4-yl]oxy-phenyl]-1-methyl-pyrazol-4-yl]pyrazolo[1,5-a]pyrimidine-3-carboxamide] | 4.9 nM | 0.18 nM | 0.28 nM | 4 nM | 18 nM |  |  | 
Cn1cc(NC(=O)c2cnn3cccnc23)c(-c2cc(Oc3cnn(CCO)c3)ccc2OC(F)F)n1 [Example 113, N-[3-[2-(difluoromethoxy)-5-[1-(2-hydroxyethyl)pyrazol-4-yl]oxy-phenyl]-1-methyl-pyrazol-4-yl]pyrazolo[1,5-a]pyrimidine-3-carboxamide] | 13 nM | 0.14 nM | 0.3 nM | 7 nM | 20 nM |  |  | 
Cn1cc(NC(=O)c2cnn3cccnc23)c(-c2cc(Oc3cnn(C4COC4)c3)ccc2OC(F)F)n1 [Example 114, N-[3-[2-(difluoromethoxy)-5-[1-(oxetan-3-yl)pyrazol-4-yl]oxy-phenyl]-1-methyl-pyrazol-4-yl]pyrazolo[1,5-a]pyrimidine-3-carboxamide] | 29 nM | 0.49 nM | 0.84 nM | 6 nM | 29 nM |  |  | 
CN1CC[C@H](O)[C@@H](n2cc(Oc3ccc(OC(F)F)c(-c4nn(C)cc4NC(=O)c4cnn5cccnc45)c3)cn2)C1 (stereo in doubt) [Example 184, N-[3-[2-(difluoromethoxy)-5-[1-[rac-(3S,4S)-4-hydroxy-l-methyl-3-piperidyl]pyrazol-4-yl]oxy-phenyl]-1-methyl-pyrazol-4-yl]pyrazolo[1,5-a]pyrimidine-3-carboxamide] | 38 nM | 0.21 nM | 0.32 nM | 12 nM | 47 nM |  |  | 
